Measured values as given in patent US8394848B2, “Compounds that modulate intracellular calcium” (Calcimedica, Inc., priority 2008, dated 2013).

Test system: JR251 or RBL cells
Test: Store-operated calcium entry, either JR251 or RBL cells, or both
Assay type: cell-based
Outline: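 Orai1/STIM1 stable cells: fluo-4-AM loaded, compound 30 min at RT in Ca2+-free HBSS, then CaCl2 added; IC50 from Peak-Basal FLIPR fluorescence. RBL-2H3 cells: compound 5 min, then thapsigargin (5.5× stock, 5.5 uM) 25 min, then calcium added; IC50 from Upslope (signal 7 s after calcium minus baseline).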

Row | Compound | IC50 [µM]
1 | O=C(O)c1c(-c2ccc(Cl)cc2)csc1NC(=O)C(Cc1ccccc1)n1cnnn1 (stereo not shown) [4-(4-chlorophenyl)-2-(3-phenyl-2-(1H-tetrazol-1-yl)propanamido)thiophene-3-carboxylic acid] | < 10
2 | CC(CC(=O)Nc1scc(-c2ccc(Cl)cc2)c1C(=O)O)c1ccccc1 (stereo not shown) [4-(4-chlorophenyl)-2-(3-phenylbutanamido)thiophene-3-carboxylic acid] | < 10
3 | O=C(CCc1ccccc1)Nc1scc(-c2ccc(Cl)cc2)c1C(=O)O [4-(4-chlorophenyl)-2-(3-phenylpropanamido)thiophene-3-carboxylic acid] | < 10
4 | O=C(C#Cc1ccccc1)Nc1scc(-c2ccc(Cl)cc2)c1C(=O)O [4-(4-chlorophenyl)-2-(3-phenylpropiolamido)thiophene-3-carboxylic acid] | < 10
5 | O=C(Nc1scc(-c2ccc(Cl)cc2)c1C(=O)O)c1cc2c(Cl)cc(Cl)cc2[nH]1 [4-(4-chlorophenyl)-2-(4,6-dichloro-1H-indole-2-carboxamido)thiophene-3-carboxylic acid] | < 10
6 | O=C(Nc1scc(-c2ccc(Cl)cc2)c1C(=O)O)c1nc2c(F)cc(F)cc2o1 [4-(4-chlorophenyl)-2-(4,6-difluorobenzo[d]oxazole-2-carboxamido)thiophene-3-carboxylic acid] | < 10
7 | O=C(Nc1scc(-c2ccc(Cl)cc2)c1C(=O)O)c1cc2c(Cl)cccn2n1 [4-(4-chlorophenyl)-2-(4-chloropyrazolo[1,5-a]pyridine-2-carboxamido)thiophene-3-carboxylic acid] | < 10
8 | O=C(Nc1scc(-c2ccc(Cl)cc2)c1C(=O)O)c1nc(C2CC2)cs1 [4-(4-chlorophenyl)-2-(4-cyclopropylthiazole-2-carboxamido)thiophene-3-carboxylic acid] | < 10
9 | O=C(O)c1c(-c2ccc(Cl)cc2)csc1NC(=O)C1Cc2c(F)cccc2S1 (stereo not shown) [4-(4-chlorophenyl)-2-(4-fluoro-2,3-dihydrobenzo[b]thiophene-2-carboxamido)thiophene-3-carboxylic acid] | < 10
10 | O=C(Nc1scc(-c2ccc(Cl)cc2)c1C(=O)O)c1nc2c(F)cccc2o1 [4-(4-chlorophenyl)-2-(4-fluorobenzo[d]oxazole-2-carboxamido)thiophene-3-carboxylic acid] | < 10
11 | O=C(Nc1scc(-c2ccc(Cl)cc2)c1C(=O)O)c1nc2c(F)cccc2s1 [4-(4-chlorophenyl)-2-(4-fluorobenzo[d]thiazole-2-carboxamido)thiophene-3-carboxylic acid] | < 10
12 | O=C(Nc1scc(-c2ccc(Cl)cc2)c1C(=O)O)c1cc2c(F)cccn2n1 [4-(4-chlorophenyl)-2-(4-fluoropyrazolo[1,5-a]pyridine-2-carboxamido)thiophene-3-carboxylic acid] | < 10
13 | O=C(Nc1scc(-c2ccc(Cl)cc2)c1C(=O)O)c1nc2c(O)cccc2o1 [4-(4-chlorophenyl)-2-(4-hydroxybenzo[d]oxazole-2-carboxamido)thiophene-3-carboxylic acid] | < 10
14 | Cc1nnsc1C(=O)Nc1scc(-c2ccc(Cl)cc2)c1C(=O)O [4-(4-chlorophenyl)-2-(4-methyl-1,2,3-thiadiazole-5-carboxamido)thiophene-3-carboxylic acid] | < 10
15 | Cc1cccc2oc(C(=O)Nc3scc(-c4ccc(Cl)cc4)c3C(=O)O)nc12 [4-(4-chlorophenyl)-2-(4-methylbenzo[d]oxazole-2-carboxamido)thiophene-3-carboxylic acid] | < 10
16 | O=C(Nc1scc(-c2ccc(Cl)cc2)c1C(=O)O)c1nc2c([N+](=O)[O-])cccc2s1 [4-(4-chlorophenyl)-2-(4-nitrobenzo[d]thiazole-2-carboxamido)thiophene-3-carboxylic acid] | < 10

Row | Compound | IC50 [µM]
17 | O=C1CC(C(=O)Nc2scc(-c3ccc(Cl)cc3)c2C(=O)O)Cc2ccccc21 (stereo not shown) [4-(4-chlorophenyl)-2-(4-oxo-1,2,3,4-tetrahydronaphthalene-2-carboxamido)thiophene-3-carboxylic acid] | < 10
18 | O=C(CCCc1ccccc1)Nc1scc(-c2ccc(Cl)cc2)c1C(=O)O [4-(4-chlorophenyl)-2-(4-phenylbutanamido)thiophene-3-carboxylic acid] | < 10
19 | O=C(Nc1scc(-c2ccc(Cl)cc2)c1C(=O)O)c1nccc(-c2ccccc2)n1 [4-(4-chlorophenyl)-2-(4-phenylpyrimidine-2-carboxamido)thiophene-3-carboxylic acid] | < 10
20 | O=C(Nc1scc(-c2ccc(Cl)cc2)c1C(=O)O)c1cc2occc2[nH]1 [4-(4-chlorophenyl)-2-(4H-furo[3,2-b]pyrrole-5-carboxamido)thiophene-3-carboxylic acid] | < 10
21 | O=C(Nc1scc(-c2ccc(Cl)cc2)c1C(=O)O)c1cc2sccc2[nH]1 [4-(4-chlorophenyl)-2-(4H-thieno[3,2-b]pyrrole-5-carboxamido)thiophene-3-carboxylic acid] | < 10
22 | O=C(Nc1scc(-c2ccc(Cl)cc2)c1C(=O)O)c1ccc(-c2ccc(Cl)cc2)o1 [4-(4-chlorophenyl)-2-(5-(4-chlorophenyl)furan-2-carboxamido)thiophene-3-carboxylic acid] | < 10
23 | Cn1nc(C(=O)Nc2scc(-c3ccc(Cl)cc3)c2C(=O)O)cc1-c1ccco1 [4-(4-chlorophenyl)-2-(5-(furan-2-yl)-1-methyl-1H-pyrazole-3-carboxamido)thiophene-3-carboxylic acid] | < 10
24 | O=C(Nc1scc(-c2ccc(Cl)cc2)c1C(=O)O)c1ncc(C(F)(F)F)cn1 [4-(4-chlorophenyl)-2-(5-(trifluoromethyl)pyrimidine-2-carboxamido)thiophene-3-carboxylic acid] | < 10
25 | O=C(O)c1c(-c2ccc(Cl)cc2)csc1NC(=O)C1Cc2ccc(F)cc2C1 (stereo not shown) [4-(4-chlorophenyl)-2-(5-fluoro-2,3-dihydro-1H-indene-2-carboxamido)thiophene-3-carboxylic acid] | < 10
26 | O=C(Nc1scc(-c2ccc(Cl)cc2)c1C(=O)O)c1nc2cc(F)ccc2o1 [4-(4-chlorophenyl)-2-(5-fluorobenzo[d]oxazole-2-carboxamido)thiophene-3-carboxylic acid] | < 10
27 | Cc1cnc(C(=O)Nc2scc(-c3ccc(Cl)cc3)c2C(=O)O)cn1 [4-(4-chlorophenyl)-2-(5-methylpyrazine-2-carboxamido)thiophene-3-carboxylic acid] | < 10
28 | Cc1cccc2nc(C(=O)Nc3scc(-c4ccc(Cl)cc4)c3C(=O)O)cnc12 [4-(4-chlorophenyl)-2-(5-methylquinoxaline-2-carboxamido)thiophene-3-carboxylic acid] | < 10
29 | O=C(O)c1c(-c2ccc(Cl)cc2)csc1NC(=O)C1Cc2ccc([N+](=O)[O-])cc2C1 (stereo not shown) [4-(4-chlorophenyl)-2-(5-nitro-2,3-dihydro-1H-indene-2-carboxamido)thiophene-3-carboxylic acid] | < 10
30 | O=C(Nc1scc(-c2ccc(Cl)cc2)c1C(=O)O)c1ccc([N+](=O)[O-])o1 [4-(4-chlorophenyl)-2-(5-nitrofuran-2-carboxamido)thiophene-3-carboxylic acid] | < 10
31 | O=C(Nc1scc(-c2ccc(Cl)cc2)c1C(=O)O)c1cc(-c2ccccc2)on1 [4-(4-chlorophenyl)-2-(5-phenylisoxazole-3-carboxamido)thiophene-3-carboxylic acid] | < 10
